Consider 3 molecules from article PMC5079764 (Bioorganic & medicinal chemistry, 2016).

Experiment [1] addresses T1, 5-HT2B receptor (Homo sapiens, UniProt P41595). As to the kind of experiment: NIMH-PDSP receptor binding affinity, 5-HT2B. The following applies: Table 1; MTA = Missed 50% of threshold inhibition.
Experiment [2] deals with T2, D2 receptor (Homo sapiens, UniProt P14416). As to the kind of experiment: NIMH-PDSP receptor binding affinity, D2. The following applies: Table 1; MTA = Missed 50% of threshold inhibition.
T2 sequence (P14416 whole entry): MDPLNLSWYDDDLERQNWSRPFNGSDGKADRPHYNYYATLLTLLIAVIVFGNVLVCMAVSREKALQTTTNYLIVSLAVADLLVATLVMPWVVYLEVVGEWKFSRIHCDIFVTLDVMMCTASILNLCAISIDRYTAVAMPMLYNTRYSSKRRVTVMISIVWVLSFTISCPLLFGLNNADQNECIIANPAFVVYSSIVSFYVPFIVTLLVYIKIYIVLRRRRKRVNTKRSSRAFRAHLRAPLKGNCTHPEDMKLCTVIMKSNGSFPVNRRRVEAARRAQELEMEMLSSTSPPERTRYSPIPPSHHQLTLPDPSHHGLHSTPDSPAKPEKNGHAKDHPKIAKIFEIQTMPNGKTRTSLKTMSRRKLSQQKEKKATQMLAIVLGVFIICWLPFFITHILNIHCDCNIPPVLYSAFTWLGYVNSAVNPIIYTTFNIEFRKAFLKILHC
In experiment [3] the target is T2, D2 receptor. The following applies: Table 1; cited from earlier work.
For the next experiment, the target named is T3, D4 receptor (Homo sapiens, UniProt P21917).
T3 sequence (P21917 1-419): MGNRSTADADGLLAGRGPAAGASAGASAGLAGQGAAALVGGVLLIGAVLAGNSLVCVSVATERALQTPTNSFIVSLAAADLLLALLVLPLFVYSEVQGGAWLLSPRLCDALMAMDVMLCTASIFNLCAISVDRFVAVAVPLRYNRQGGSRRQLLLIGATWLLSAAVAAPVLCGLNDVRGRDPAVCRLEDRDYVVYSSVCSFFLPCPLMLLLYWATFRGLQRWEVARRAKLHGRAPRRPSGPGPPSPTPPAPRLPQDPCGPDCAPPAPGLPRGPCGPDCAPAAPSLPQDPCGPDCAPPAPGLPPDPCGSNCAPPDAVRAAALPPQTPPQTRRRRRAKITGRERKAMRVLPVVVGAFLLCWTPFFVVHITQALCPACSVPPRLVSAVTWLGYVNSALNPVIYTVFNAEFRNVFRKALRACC
The following applies: Table 1; cited from earlier work.

A further experiment deals with T4, 5-HT1A receptor (Homo sapiens, UniProt P08908).
T4 sequence (P08908 1-422): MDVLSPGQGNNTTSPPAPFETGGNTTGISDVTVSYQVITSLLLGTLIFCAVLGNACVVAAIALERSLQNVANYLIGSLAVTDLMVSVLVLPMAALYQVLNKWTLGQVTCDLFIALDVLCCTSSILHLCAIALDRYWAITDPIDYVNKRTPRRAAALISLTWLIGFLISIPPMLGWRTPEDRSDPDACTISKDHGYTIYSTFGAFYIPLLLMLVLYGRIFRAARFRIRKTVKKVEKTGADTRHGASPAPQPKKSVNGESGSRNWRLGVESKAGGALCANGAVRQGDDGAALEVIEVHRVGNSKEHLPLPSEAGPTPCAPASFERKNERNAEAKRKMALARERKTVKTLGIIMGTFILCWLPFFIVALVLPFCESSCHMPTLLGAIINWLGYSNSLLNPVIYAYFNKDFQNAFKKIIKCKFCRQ
The following applies: Table 1, cited from earlier work.

In a further experiment the target is 5-HT2A receptor (Homo sapiens, UniProt P28223). The following applies: Table 1; cited from earlier work.
Sequence of 5-HT2A receptor (P28223 whole entry): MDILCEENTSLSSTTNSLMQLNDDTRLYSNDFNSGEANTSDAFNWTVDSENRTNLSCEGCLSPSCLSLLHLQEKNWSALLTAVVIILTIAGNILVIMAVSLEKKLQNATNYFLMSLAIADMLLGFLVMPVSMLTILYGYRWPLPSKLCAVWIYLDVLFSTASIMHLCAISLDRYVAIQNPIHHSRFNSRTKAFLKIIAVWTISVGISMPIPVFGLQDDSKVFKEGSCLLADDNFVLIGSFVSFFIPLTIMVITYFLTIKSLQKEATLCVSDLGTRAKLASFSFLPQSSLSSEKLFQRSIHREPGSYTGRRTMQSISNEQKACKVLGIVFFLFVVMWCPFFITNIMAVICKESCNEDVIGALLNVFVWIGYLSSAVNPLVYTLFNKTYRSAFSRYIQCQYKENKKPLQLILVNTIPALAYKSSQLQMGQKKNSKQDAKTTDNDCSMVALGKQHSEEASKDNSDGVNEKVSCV
Another experiment concerns the target 5-HT7 receptor (Homo sapiens, UniProt P34969). The following applies: Table 1; cited from earlier work.
Experiment [4] deals with T1, 5-HT2B receptor. The following applies: Table 1; cited from earlier work.
Another experiment addresses T5, 5-HT2C receptor (Homo sapiens, UniProt P28335).
T5 sequence (P28335 33-458): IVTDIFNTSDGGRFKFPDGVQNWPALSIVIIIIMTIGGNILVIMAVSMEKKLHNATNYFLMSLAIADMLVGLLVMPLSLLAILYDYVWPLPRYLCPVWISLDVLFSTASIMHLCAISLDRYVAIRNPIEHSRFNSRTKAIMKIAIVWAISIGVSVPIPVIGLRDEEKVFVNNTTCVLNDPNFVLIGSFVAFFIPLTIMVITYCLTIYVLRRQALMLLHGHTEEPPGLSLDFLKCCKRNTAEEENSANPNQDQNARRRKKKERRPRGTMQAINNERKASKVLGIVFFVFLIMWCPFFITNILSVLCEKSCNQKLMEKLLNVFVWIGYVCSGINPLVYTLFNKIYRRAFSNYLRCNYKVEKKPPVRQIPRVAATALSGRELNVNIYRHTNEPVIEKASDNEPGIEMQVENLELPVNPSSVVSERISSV
The following applies: Table 1; cited from earlier work.

A further experiment deals with H1 receptor (Homo sapiens, UniProt P35367). The following applies: Table 1; cited from earlier work.
Sequence of H1 receptor (P35367 whole entry): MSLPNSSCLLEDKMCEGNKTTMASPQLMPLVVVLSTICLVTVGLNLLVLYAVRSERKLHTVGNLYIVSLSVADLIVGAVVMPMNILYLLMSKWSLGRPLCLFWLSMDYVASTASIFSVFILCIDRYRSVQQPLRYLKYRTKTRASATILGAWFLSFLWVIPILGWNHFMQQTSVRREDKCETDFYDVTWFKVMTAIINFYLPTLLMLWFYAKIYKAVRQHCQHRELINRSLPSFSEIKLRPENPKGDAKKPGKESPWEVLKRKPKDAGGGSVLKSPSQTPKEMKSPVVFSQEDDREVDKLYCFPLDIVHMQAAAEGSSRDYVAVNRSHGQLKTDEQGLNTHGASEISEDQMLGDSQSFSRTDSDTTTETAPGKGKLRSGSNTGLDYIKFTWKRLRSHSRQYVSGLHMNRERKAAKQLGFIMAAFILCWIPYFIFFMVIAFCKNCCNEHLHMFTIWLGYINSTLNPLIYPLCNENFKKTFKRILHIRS

T1 sequence (P41595 whole entry): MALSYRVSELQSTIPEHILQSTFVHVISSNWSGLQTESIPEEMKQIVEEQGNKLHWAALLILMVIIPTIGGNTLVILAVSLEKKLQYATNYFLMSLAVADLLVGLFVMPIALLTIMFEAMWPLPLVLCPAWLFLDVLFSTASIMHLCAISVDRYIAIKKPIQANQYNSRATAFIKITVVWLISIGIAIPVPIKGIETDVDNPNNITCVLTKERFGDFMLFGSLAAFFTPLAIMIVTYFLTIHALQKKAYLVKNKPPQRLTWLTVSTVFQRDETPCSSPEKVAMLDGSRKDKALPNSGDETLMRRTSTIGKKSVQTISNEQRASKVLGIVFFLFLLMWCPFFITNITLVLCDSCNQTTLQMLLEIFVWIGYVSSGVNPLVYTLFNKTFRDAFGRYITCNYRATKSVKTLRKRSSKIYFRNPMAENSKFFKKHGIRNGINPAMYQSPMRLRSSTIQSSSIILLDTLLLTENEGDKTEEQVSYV
Sequence of 5-HT7 receptor (P34969 whole entry): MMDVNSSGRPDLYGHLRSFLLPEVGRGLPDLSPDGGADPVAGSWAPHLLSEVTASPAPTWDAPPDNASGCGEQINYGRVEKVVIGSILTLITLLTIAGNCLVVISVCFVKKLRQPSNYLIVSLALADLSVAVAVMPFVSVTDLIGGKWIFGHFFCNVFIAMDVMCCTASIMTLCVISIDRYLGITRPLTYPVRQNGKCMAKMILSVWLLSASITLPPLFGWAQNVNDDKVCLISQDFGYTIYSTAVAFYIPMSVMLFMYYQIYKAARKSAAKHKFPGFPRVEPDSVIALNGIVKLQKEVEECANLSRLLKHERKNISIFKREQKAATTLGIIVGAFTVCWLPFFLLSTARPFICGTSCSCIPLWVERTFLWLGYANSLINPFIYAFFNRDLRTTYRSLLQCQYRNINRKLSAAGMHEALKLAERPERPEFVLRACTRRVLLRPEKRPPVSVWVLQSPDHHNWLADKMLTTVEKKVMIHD

`Cl.Cl.c1ccc2c(c1)CCN(CCCc1nc3ccccc3[nH]1)C2` [Compound 1d, 2-(3-(1H-benzo[d]imidazol-2-yl)propyl)-1,2,3,4-tetrahydroisoquinoline]: on 5-HT2B receptor [1], the “Ki (nM) 5-HT2B” value is recorded as “MTA”.
For `Br.c1ccc2c(c1)CCN(CCCc1nc3ccccc3s1)C2` [Compound 1b, 2-(3-(3,4-Dihydroisoquinolin-2(1H)-yl)propyl)benzo[d]thiazole hydrobromide], the “Ki (nM) D2” value on D2 receptor [2] was “MTA”.
For the molecule `c1ccc2c(c1)CCN(CCCCc1nc3ccccc3s1)C2` [Compound 1a, 2-(4-(3,4-Dihydroisoquinolin-2(1H)-yl)butyl)benzo[d]thiazole], on D2 receptor [3], the “pKi±SEM D2” value is recorded as 6.78±0.09. The “pKi±SEM D4” value on D4 receptor is 7.17±0.05. The “pKi±SEM 5-HT1A” value on 5-HT1A receptor is on record as 8±0.03. The Ki at 5-HT1A receptor (read-out: Ki (nM) 5-HT1A, MTA = Missed 50% of threshold inhibition) was 10 nM. The “pKi±SEM 5-HT2A” value at 5-HT2A receptor is 5.77±0.06. In addition, the “pKi±SEM 5-HT7” value at 5-HT7 receptor is 7.66±0.06. In addition, the “pKi±SEM 5-HT2B” value on 5-HT2B receptor [4] is recorded as 7.74±0.05. Besides, the “pKi±SEM 5-HT2C” value on 5-HT2C receptor is 6.04±0.04. For the same molecule, the “pKi±SEM H1” value on H1 receptor was 6.23±0.08.
